Read-outs that look alike come from different tables or passages of the source.
Tests used:
TR-HSP72 (aa 3-382) = target: T1, TR-HSP72 (aa 3-382) (Homo sapiens, UniProt P0DMV8); assay: Fluorescence polarisation probe KD determination with truncated HSP72; assay type: binding
T1 construct: Truncated HSP72-NBD (residues 3 to 382); made in house
Procedure: (§1) To determine the binding affinity of bisaryl FP-probe 11 for HSP72, increasing concentrations of the protein were titrated against a fixed concentration (10 nM) of the FP-probe. […] We speculated that this decrease in apparent KD was due to the slow hydrolysis of the ATP-probe to ADP-ATTO-488 + Pi. Although HSP72 has low intrinsic ATPase activity,[8] the high enzyme concentration could catalyse hydrolysis over the time-frame of the assay, with the initial KD values reflective of the known modest affinity of ATP for HSP70, whilst the final KD value was consistent with the higher affinity ADP ligand.[14] […]
(§2) TRIS Tris(hydroxymethyl)aminomethane
(§3) General Information: Unless otherwise stated the aqueous assay buffer contained 50 mM TRIS base pH 7.4, 150 mM NaCl, 6 mM MgCl2, 1 mM DTT, 0.1% (wt/wt) CHAPS. The assay was conducted using 384 Plus F ProxiPlates (PerkinElmer) with a final assay volume of 10 μL. Plates were centrifuged at 1000 rpm for 1 minute prior to incubation and read using an 2103 Envision Multilable Plate Reader. Excitation and emission wavelengths used for green probes were 480 nm and 535 nm, respectively.
(§4) Fluorescence polarisation was measured in units of millipolarization (mP). […] Data were plotted and analysed using GraphPad Prism 6, graphical data represents the mean ± standard error of the mean for a single representative experiment. […]

TR-HSC70 (aa 4-381) = target: T2, TR-HSC70 (aa 4-381) (Homo sapiens, UniProt P11142); assay: Fluorescence polarisation probe KD determination with truncated HSC70; assay type: binding
T2 construct: HSC70-NBD (residues 4 to 381); made in house
Procedure: as §1, §2, §3, §4

HSP72 [1] = target: T3, HSP72 (Homo sapiens, UniProt P0DMV8); assay: Fluorescence polarisation probe KD determination with full-length HSP72; assay type: binding
T3 construct: made in house
Procedure: as §1, §2, §3
Fluorescence polarisation was measured in units of millipolarization (mP). All experiments were performed in triplicate, unless otherwise stated. Data were plotted and analysed using GraphPad Prism 6, graphical data represents the mean ± standard error of the mean for a single representative experiment. ATP-derived fluorescent probes (1.0 mM in aqueous) were purchased from Jena Bioscience. Human BAG-1M (10.9 μM in 20 mM TRIS base pH 7.4, 100 mM NaCl, 1 mM DTT, 1% (v/v) glycerol) was purchased from Enzo Life Sciences. […]
Fluorescence polarisation values for the tracer ± protein were plotted using GraphPad prism 6.
Fluorescent probe KD determination: To each well, 5 μL of probe molecule (20 nM in assay buffer) and increasing concentrations of HSP70 protein (5 μL, two-fold dilution series) were added. Fluorescence polarisation values for tracer control wells (10 nM probe in assay buffer only) were subtracted from each data point prior to data analysis. KD determination was performed using non-linear regression analysis (GraphPad Prism 6, one site–specific binding model). […]
BAG-1 titration: To each well, ATP-ATTO488 and HSP70 at two times their final concentration (5 µL in assay buffer) was added and the plate incubated in the dark for 16 hours. Increasing concentrations of BAG1 protein (5 μL, two-fold dilution series in 20 […]
(1 picture or pasted object on this page, not shown here)

HSP72 [2] = target: T3, HSP72; assay: FP assay binding window and Z' determination
Source text: As a result, the assay was not statistically robust, so could not be used in competition experiments (Z′ = 0.36).[11],[20],[21] We hypothesised that the high lipophilicity of 10 (clog P = 6.9) was causing the small binding window, either due to aggregation, even at very low concentrations, or its large hydrate volume.[22] Because the lipophilicity of the specific-ligand portion of the probe was fixed by the need for high affinity to the HSP70 target, we focused on changes to the solvent exposed fluorophore. ATTO-488, a green-shifted fluorophore that contains two sulfonic acid groups, was selected as an alternative to fluorescein (see ESI ^†), as this reduced the clog P of the bisaryl probe 11 to –3.9.[21] The binding window of ATTO-488 bisaryl FP-probe 11 measured at a fixed and apparently saturating concentration of HSP72 (5 μM), was now greater than 150 mP (Z′ = 0.63, Fig. 3A and Fig. S1, ESI ^†). […]
as §2, §3
Fluorescence polarisation was measured in units of millipolarization (mP). All experiments were performed in triplicate, unless otherwise stated. Data were plotted and analysed using GraphPad Prism 6, graphical data represents the mean ± standard error of the mean for a single representative experiment. ATP-derived fluorescent probes (1.0 mM in aqueous) were purchased from Jena Bioscience. Human BAG-1M (10.9 μM in 20 mM TRIS base pH 7.4, 100 mM NaCl, 1 mM DTT, 1% (v/v) glycerol) was purchased from Enzo Life Sciences.
Determination of optimal probe concentration: To each well, 5 μL of HSP72 (10 µM in assay buffer) or 5 μL assay buffer and increasing concentrations of probe (5 μL, two-fold dilution series) were added. Fluorescence polarisation values for the tracer ± protein were plotted using GraphPad prism 6. […]
Z’ determination: To each well, 5 µL of probe (20 nM in assay buffer) and either 5 µL of HSP70 (in assay buffer) or 5 µL of assay buffer were added. Fluorescent polarisation values from 96 wells were used to calculate the mean and standard deviation for each data set. Z’-factors were calculated using the equation given below (sample refers to probe in the absence of protein and control refers to probe in the presence of protein). […]

T3 sequence (P0DMV8 whole entry): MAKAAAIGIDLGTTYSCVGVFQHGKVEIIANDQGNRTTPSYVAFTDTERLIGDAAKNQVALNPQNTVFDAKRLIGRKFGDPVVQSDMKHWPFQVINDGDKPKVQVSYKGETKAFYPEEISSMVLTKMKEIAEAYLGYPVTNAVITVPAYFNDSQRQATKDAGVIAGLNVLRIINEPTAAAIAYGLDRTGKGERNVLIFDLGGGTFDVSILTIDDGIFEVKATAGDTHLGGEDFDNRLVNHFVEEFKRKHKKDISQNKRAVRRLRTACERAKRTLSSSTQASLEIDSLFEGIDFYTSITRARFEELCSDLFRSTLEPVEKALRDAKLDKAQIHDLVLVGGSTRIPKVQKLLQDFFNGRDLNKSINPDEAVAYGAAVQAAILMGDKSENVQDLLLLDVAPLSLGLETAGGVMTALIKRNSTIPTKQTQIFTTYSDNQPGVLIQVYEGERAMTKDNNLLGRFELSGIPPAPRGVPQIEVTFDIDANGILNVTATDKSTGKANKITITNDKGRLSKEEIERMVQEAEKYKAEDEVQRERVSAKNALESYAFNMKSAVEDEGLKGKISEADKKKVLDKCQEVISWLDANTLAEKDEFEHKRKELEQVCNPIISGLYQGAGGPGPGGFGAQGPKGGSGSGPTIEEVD
T1 sequence (P0DMV8 3-382): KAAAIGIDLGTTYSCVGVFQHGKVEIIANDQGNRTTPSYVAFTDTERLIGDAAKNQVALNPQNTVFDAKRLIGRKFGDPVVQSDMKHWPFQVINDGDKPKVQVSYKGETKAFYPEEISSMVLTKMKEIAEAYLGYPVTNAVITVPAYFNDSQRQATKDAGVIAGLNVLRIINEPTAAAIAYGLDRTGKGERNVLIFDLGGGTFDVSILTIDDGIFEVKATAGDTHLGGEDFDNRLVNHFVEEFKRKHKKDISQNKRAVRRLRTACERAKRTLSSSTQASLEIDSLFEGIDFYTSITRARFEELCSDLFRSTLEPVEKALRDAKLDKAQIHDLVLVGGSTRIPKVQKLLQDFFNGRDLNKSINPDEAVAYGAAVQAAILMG
T2 sequence (P11142 4-381): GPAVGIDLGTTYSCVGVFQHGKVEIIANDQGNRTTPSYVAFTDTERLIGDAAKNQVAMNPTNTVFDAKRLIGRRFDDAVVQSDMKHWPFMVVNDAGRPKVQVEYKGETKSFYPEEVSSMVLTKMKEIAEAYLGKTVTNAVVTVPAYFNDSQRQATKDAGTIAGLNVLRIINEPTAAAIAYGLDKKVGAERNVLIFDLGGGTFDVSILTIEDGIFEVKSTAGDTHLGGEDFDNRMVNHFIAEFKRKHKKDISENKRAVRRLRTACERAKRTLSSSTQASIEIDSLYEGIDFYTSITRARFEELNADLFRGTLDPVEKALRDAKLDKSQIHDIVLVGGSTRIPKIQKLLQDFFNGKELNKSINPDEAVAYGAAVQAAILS

SMILES: CN(CCCC(=O)NCCCCCCNc1ncnc2c1nc(NCc1ccc3ncccc3c1)n2[C@@H]1O[C@H](COCc2ccc(C(F)(F)F)cc2)[C@@H](O)[C@H]1O)C(=O)c1ccccc1-c1c2ccc(=N)c(S(=O)(=O)O)c-2oc2c(S(=O)(=O)O)c(N)ccc12 [compound 11]
- Kd (TR-HSP72 (aa 3-382)): 50 nM
- pKD (TR-HSP72 (aa 3-382)): 7.32
- Kd (TR-HSC70 (aa 4-381); TR-HSC70): 117 nM
- pKD (TR-HSC70 (aa 4-381); TR-HSC70, n = 2): 6.93
- time-dependency of affinity for HSP72 (HSP72 [1]): no apparent time-dependency
- pKD (HSP72 [1]; 10 nM probe, 0.1% (w/v) CHAPS, n = 4): 6.72 ± 0.04
- Kd (HSP72 [1]; 10 nM probe, 0.1% (w/v) CHAPS, read-out: KD): 194 nM
- pKD (HSP72 [1]; 0.01% (v/v) Triton X-100, n = 3): 6.83
- Kd (HSP72 [1]; 0.01% (v/v) Triton X-100, read-out: KD): 150 nM
- Kd (HSP72 [1]; without BAG1, Fig. S7 isotherm, read-out: KD - BAG1): 183 nM
- Z' (HSP72 [2]; FP assay with HSP72): 0.63
- assay (binding) window (HSP72 [2]; presence vs absence of 5 μM HSP72): greater than 150 mP
